# From patent publication US6808924B1, “Mouse mammary tumor lines expressing estrogen and progesterone receptors” (priority 2000, dated 2004)
# Experiments:
# MC4-L1 cell line = assay: In vitro hormone response, 3H-thymidine uptake, MC4-L1; format: cell-based, mouse
# Experimental: (§1) 3H-Thymidine uptake: In a 96 well microplate, 0.1 ml/well of a cell suspension were seeded in EM at a concentration of 10^5 cell/ml. After attachment (24 hs), the cells were incubated for 72 hs with the experimental solutions to be tested. Half the media was changed every 24 hs. The cells were incubated with 0.4 μCi of ^3H-thymidine (specific activity: 20 Ci/mmol) for 24 hs, trypsinized and harvested in a cell harvester. Filters were counted in a liquid scintillation counter. Assays were performed in octuplicates and mean and standard deviation were calculated for each solution tested. The difference between controls and experimental groups were analyzed by ANOVA followed by Dunnet's t test between groups.
# MC4-L2 cell line = assay: In vitro hormone response, 3H-thymidine uptake, MC4-L2; format: cell-based, mouse
# Experimental: as §1
# MC7-L1 cell line = assay: In vitro hormone response, 3H-thymidine uptake, MC7-L1; format: cell-based, mouse; parameters: In vitro proliferative response: key to the marks not given beside the values
# Experimental: as §1
# MC4-L1 tumors = assay: In vivo hormone response, MC4-L1 tumors in BALB/c female mice; parameters: species or system mouse; conditions: for effect on tumor size (tumor regression): MC4-L1 tumors about 50 mm2, no MPA, ZK 10 mg/Kg or RU 6.5 mg/Kg daily sc, E2 5 mg silastic pellet sc
# Experimental: (§2) Cells were trypsinized and resuspended in 10 fold excess of culture medium and 10% FCS. After centrifugation cells were resuspended in serum-free medium and […] were injected sc in a final volume of 0.1 ml using a 21 gauge needle in the right inguinal flank of BALB/c mice which have been inoculated contralaterally with 40 mg MPA depot (Gador Laboratories, Buenos Aires). The mice were examined every three days for the development of palpable tumors. At the end of the experiment the animals were killed and the tumors excised. Complete autopsies were performed to detect the presence of metastases. Animal care was in agreement with institutional guidelines. Cells from different lines were inoculated into BALB/c female mice treated or not with MPA as described previously. If tumors grew similarly in treated and untreated animals, the tumors growing in untreated mice were used for the next passage. Tumors were transplanted by trocar sc in the right inguinal flank of 2 month old, BALB/c female mice. Hormone treatments were initiated when the tumors reached around 50 mm2. RU (6.5 mg/Kg body weight) and ZK (10 mg/Kg body weight) were inoculated as daily sc injections. E2 was administered as 5 mg silastic pellets implanted sc. Tumor growth was measured every 2-3 days.
# MC4-L3 tumors = assay: In vivo hormone response, MC4-L3 tumors in BALB/c female mice; parameters: species or system mouse; conditions: for effect on tumor size (tumor regression): MC4-L3 tumors about 50 mm2, ZK 10 mg/Kg or RU 6.5 mg/Kg daily sc, E2 5 mg silastic pellet sc
# Experimental: as §2
# MC7-L1 tumors = assay: In vivo hormone response, MC7-L1 tumors in BALB/c female mice; parameters: species or system mouse; conditions: for effect on tumor size (tumor regression): MC7-L1 tumors, ZK 10 mg/Kg or RU 6.5 mg/Kg daily sc, E2 5 mg silastic pellet sc
# Experimental: as §2
# MC4-L2 tumors = assay: In vivo hormone response, MC4-L2 tumors in BALB/c female mice; parameters: species or system mouse
# Experimental: as §2
# [1] = tested on: C4-HD primary and secondary cultures; conditions: primary and secondary cultures of C4-HD (Dran G. et al. 1995); cited from earlier work
# MC4-L3 cell line = assay: In vitro hormone response, 3H-thymidine uptake, MC4-L3; format: cell-based, mouse
# Experimental: as §1
# [2] = MC4-L1, early passages (before passage number 16)
compound,measurement,setting,value
"CN(C)c1ccc([C@H]2C[C@]3(C)[C@@H](CC[C@]3(O)CCCO)[C@@H]3CCC4=CC(=O)CCC4=C32)cc1 [ZK, onapristone]",effect on cell proliferation (3H-thymidine uptake),"MC4-L1 cell line; MC4-L1, μM concentrations",stimulated cell proliferation
same,effect on cell proliferation (3H-thymidine uptake),"MC4-L2 cell line; MC4-L2, about 0.1 to about 1 uM",in some experiments showed an inhibitory effect
same,effect on thymidine uptake,MC7-L1 cell line; MC7-L1,did not modify thymidine uptake
same,effect on tumor size (tumor regression),MC4-L1 tumors,showed tumor regression
same,effect on tumor size (tumor regression),MC4-L3 tumors,Complete regression
same,effect on tumor size (tumor regression),MC7-L1 tumors,not inhibited
"CC(=O)O[C@]1(C(C)=O)CC[C@H]2[C@@H]3C[C@H](C)C4=CC(=O)CC[C@]4(C)[C@H]3CC[C@@]21C [MPA, medroxyprogesterone acetate]",effect on cell proliferation (3H-thymidine uptake),MC4-L1 cell line; [2],stimulatory effect
same,effect on cell proliferation (3H-thymidine uptake),"MC4-L1 cell line; MC4-L1, later passages",only evident (p<0.05) with uM concentrations
same,effect on cell proliferation (3H-thymidine uptake),"MC4-L2 cell line; MC4-L2, 0.1 nM to about 10 nM",significant stimulatory effect
same,effect on cell growth (3H-thymidine uptake),"MC7-L1 cell line; MC7-L1, about 1 nM to about 1 uM",significantly stimulates cell growth
same,MPA dependence of tumor growth,"MC4-L1 tumors; MC4-L1 inoculated sc, mice treated or not with 40 mg MPA depot sc",same pattern of growth that was observed in the parental tumor line
same,MPA dependence of tumor growth,"MC4-L1 tumors; MC4-L1 subculture 70, 3rd passage",MPA-dependent
same,MPA dependence of tumor growth,"MC4-L1 tumors; MC4-L1 subculture 70, next passage",growth was favored
same,MPA dependence of tumor growth,"MC4-L2 tumors; MC4-L2, MPA-treated vs non-treated mice",PI pattern of growth
same,MPA dependence of tumor growth,"MC4-L3 tumors; MC4-L3, MPA-treated vs non-treated mice",PD pattern
same,MPA dependence of tumor growth,"MC7-L1 tumors; MC7-L1, MPA-treated vs non-treated mice",PI pattern of growth
same,effect on cell proliferation,[1],stimulates directly cell proliferation
"C[C@]12CC[C@@H]3c4ccc(O)cc4CC[C@H]3[C@@H]1CC[C@@H]2O [E2, estradiol]",In vitro proliferative response,"MC4-L1 cell line; MC4-L1, Table 2 grade",±
same,In vitro proliferative response,"MC4-L2 cell line; MC4-L2, Table 2 grade",+
same,In vitro proliferative response,"MC4-L3 cell line; MC4-L3, Table 2 grade",−
same,concentration at which the higher values of proliferation were obtained,MC7-L1 cell line; MC7-L1,about 1 nM
same,In vitro proliferative response,"MC7-L1 cell line; MC7-L1, Table 2 grade",++
same,effect on tumor size (tumor regression),MC7-L1 tumors,not inhibited
TGFβ1: TGFβ1,effect on cell proliferation (3H-thymidine uptake),"MC4-L1 cell line; MC4-L1, later passages",significant inhibition of cell growth
same,effect on cell proliferation (3H-thymidine uptake),MC4-L3 cell line; MC4-L3,inhibited
same,effect on thymidine uptake,MC7-L1 cell line; MC7-L1,had no effects
"CC#C[C@]1(O)CC[C@H]2[C@@H]3CCC4=CC(=O)CCC4=C3[C@@H](c3ccc(N(C)C)cc3)C[C@@]21C [RU, mifepristone]",effect on cell proliferation (3H-thymidine uptake),MC4-L1 cell line; [2],agonist effect
same,effect on cell proliferation (3H-thymidine uptake),MC4-L2 cell line; MC4-L2,did not induce any change
same,effect on cell proliferation (3H-thymidine uptake),"MC7-L1 cell line; MC7-L1, about 0.1 to about 1 μM",stimulatory effect
same,effect on tumor size (tumor regression),MC4-L1 tumors,Only animals treated with ZK showed tumor regression
same,effect on tumor size (tumor regression),"MC4-L2 tumors; MC4-L2 tumors about 50 mm2, RU 6.5 mg/Kg daily sc",complete regression
same,effect on tumor size (tumor regression),MC4-L3 tumors,Complete regression
same,effect on tumor size (tumor regression),MC7-L1 tumors,not inhibited
